{"source": "paper doi:10.1101/2024.08.19.608619", "about": "“Discovery of potent SARS-CoV-2 nsp3 macrodomain inhibitors uncovers lack of translation to cellular antiviral response” (bioRxiv, 2024)", "key": {"[1]": {"molecular_target": "T1, SARS-CoV-2 nsp3-mac1 (Severe acute respiratory syndrome coronavirus 2, UniProt P0DTD1)", "test": "biochemical", "assay_type": "biochemical", "conditions": "SARS-CoV-2 nsp3 macrodomain TR-FRET single point"}, "[2]": {"molecular_target": "T1, SARS-CoV-2 nsp3-mac1", "test": "biochemical", "set-up": "SARS-CoV-2 nsp3 macrodomain TR-FRET single point, per cent inhibition, n=2"}, "[3]": {"conditions": "read-out: perc_inhibition_mean, batch_name=ASAP-0000254-001"}, "[4]": {"conditions": "read-out: perc_inhibition_mean, batch_name=ASAP-0000401-001"}, "[5]": {"conditions": "read-out: perc_inhibition_mean, batch_name=ASAP-0000352-001"}, "[6]": {"conditions": "read-out: perc_inhibition_mean, batch_name=ASAP-0000307-001"}, "[7]": {"conditions": "read-out: perc_inhibition_mean, batch_name=ASAP-0000348-001"}, "[8]": {"conditions": "read-out: perc_inhibition_mean, batch_name=ASAP-0000289-001"}, "[9]": {"conditions": "read-out: perc_inhibition_mean, batch_name=ASAP-0000403-001"}, "[10]": {"conditions": "read-out: perc_inhibition_mean, batch_name=ASAP-0000346-001"}, "[11]": {"conditions": "read-out: perc_inhibition_mean, batch_name=ASAP-0000449-001"}}, "note": "Read-outs that look alike come from different tables or passages of the source."}
{"smiles": "Cc1ccc(O)c(CNc2ncnc3[nH]cnc23)n1", "note": "[ASAP-0000254]", "values": [{"measurement": "perc_inhibition_mean", "setting": "[1]; concentration 50.0 uM", "value": 0.262, "unit": "%"}, {"measurement": "perc_inhibition_mean", "setting": "[1]; concentration 100.0 uM", "value": 6.284, "unit": "%"}, {"measurement": "inhibition at 50 µM", "setting": "[2]; [3]", "value": 0.262, "unit": "%"}, {"measurement": "inhibition at 100 µM", "setting": "[2]; [3]", "value": 6.28, "unit": "%"}]}
{"smiles": "Cc1[nH]c2ncnc(NC(=O)C3CCC(F)(F)CC3)c2c1C", "note": "[ASAP-0000020]", "values": [{"measurement": "perc_inhibition_mean", "setting": "[1]; concentration 50.0 uM", "value": 2.148, "unit": "%"}, {"measurement": "inhibition at 50 µM", "setting": "[2]; read-out: perc_inhibition_mean, batch_name=ASAP-0000020-001", "value": 2.15, "unit": "%"}]}
{"smiles": "OC[C@@]1(Cc2ccc(F)cc2)CCN(c2ncnc3[nH]ccc23)C1", "note": "[ASAP-0000194]", "values": [{"measurement": "perc_inhibition_mean", "setting": "[1]; concentration 50.0 uM", "value": 5.07, "unit": "%"}, {"measurement": "inhibition at 50 µM", "setting": "[2]; read-out: perc_inhibition_mean, batch_name=ASAP-0000194-001", "value": 5.07, "unit": "%"}]}
{"smiles": "O=C(CCN(Cc1cccc(Cl)c1)C(=O)C1CCC(O)CC1)N1CCNCC1", "note": "(stereo not drawn) [ASAP-0000401]", "values": [{"measurement": "perc_inhibition_mean", "setting": "[1]; concentration 49.75 uM", "value": -4.315, "unit": "%"}, {"measurement": "perc_inhibition_mean", "setting": "[1]; concentration 99.5 uM", "value": 0.465, "unit": "%"}, {"measurement": "inhibition at 49.75 µM", "setting": "[2]; [4]", "value": -4.32, "unit": "%"}, {"measurement": "inhibition at 99.5 µM", "setting": "[2]; [4]", "value": 0.465, "unit": "%"}]}
{"smiles": "O=C(NCCn1cncn1)c1cnn2ccc(C3CCN(C(=O)c4ccccc4)CC3)cc12", "note": "[ASAP-0000352]", "values": [{"measurement": "perc_inhibition_mean", "setting": "[1]; concentration 49.75 uM", "value": -3.7, "unit": "%"}, {"measurement": "perc_inhibition_mean", "setting": "[1]; concentration 99.5 uM, n=2", "value": -2.566, "unit": "%"}, {"measurement": "inhibition at 49.75 µM", "setting": "[2]; [5]", "value": -3.7, "unit": "%"}, {"measurement": "inhibition at 99.5 µM", "setting": "[2]; [5]", "value": -2.57, "unit": "%"}]}
{"smiles": "Cn1cc(NC(=O)c2ccc(NC(=O)Nc3ccccc3)cc2)c(C#N)n1", "note": "[ASAP-0000307]", "values": [{"measurement": "perc_inhibition_mean", "setting": "[1]; concentration 49.75 uM, n=2", "value": 2.492, "unit": "%"}, {"measurement": "perc_inhibition_mean", "setting": "[1]; concentration 99.5 uM, n=2", "value": -0.539, "unit": "%"}, {"measurement": "inhibition at 49.75 µM", "setting": "[2]; [6]", "value": 2.49, "unit": "%"}, {"measurement": "inhibition at 99.5 µM", "setting": "[2]; [6]", "value": -0.539, "unit": "%"}]}
{"smiles": "O=C(NCc1c[nH]nn1)c1cnn2ccc(C3CCN(C(=O)c4ccccc4)CC3)cc12", "note": "[ASAP-0000348]", "values": [{"measurement": "perc_inhibition_mean", "setting": "[1]; concentration 49.75 uM, n=2", "value": -2.856, "unit": "%"}, {"measurement": "perc_inhibition_mean", "setting": "[1]; concentration 99.5 uM, n=2", "value": 2.165, "unit": "%"}, {"measurement": "inhibition at 49.75 µM", "setting": "[2]; [7]", "value": -2.86, "unit": "%"}, {"measurement": "inhibition at 99.5 µM", "setting": "[2]; [7]", "value": 2.17, "unit": "%"}]}
{"smiles": "C[C@H](NC(=O)c1ccc(NC(=O)Nc2ccccc2)cc1)[C@@H]1CCCO1", "note": "[ASAP-0000289]", "values": [{"measurement": "perc_inhibition_mean", "setting": "[1]; concentration 49.75 uM, n=2", "value": -4.279, "unit": "%"}, {"measurement": "perc_inhibition_mean", "setting": "[1]; concentration 99.5 uM, n=2", "value": -4.858, "unit": "%"}, {"measurement": "inhibition at 49.75 µM", "setting": "[2]; [8]", "value": -4.28, "unit": "%"}, {"measurement": "inhibition at 99.5 µM", "setting": "[2]; [8]", "value": -4.86, "unit": "%"}]}
{"smiles": "COc1cccc(Cl)c1CNc1ncnc2[nH]ncc12", "note": "[ASAP-0000002]", "values": [{"measurement": "perc_inhibition_mean", "setting": "[1]; concentration 50.0 uM", "value": -1.826, "unit": "%"}, {"measurement": "inhibition at 50 µM", "setting": "[2]; read-out: perc_inhibition_mean, batch_name=ASAP-0000002-001", "value": -1.83, "unit": "%"}]}
{"smiles": "CC1OCCC1(O)CNC(=O)c1ncnc2[nH]ccc12", "note": "(stereo not drawn) [ASAP-0000065]", "values": [{"measurement": "perc_inhibition_mean", "setting": "[1]; concentration 50.0 uM", "value": 1.864, "unit": "%"}, {"measurement": "inhibition at 50 µM", "setting": "[2]; read-out: perc_inhibition_mean, batch_name=ASAP-0000065-001", "value": 1.86, "unit": "%"}]}
{"smiles": "O=C1CCN(C(=O)c2cnn3ccc(C4CCN(C(=O)c5ccccc5)CC4)cc23)CCN1", "note": "[ASAP-0000403]", "values": [{"measurement": "perc_inhibition_mean", "setting": "[1]; concentration 49.75 uM", "value": -2.402, "unit": "%"}, {"measurement": "perc_inhibition_mean", "setting": "[1]; concentration 99.5 uM", "value": -7.808, "unit": "%"}, {"measurement": "inhibition at 49.75 µM", "setting": "[2]; [9]", "value": -2.4, "unit": "%"}, {"measurement": "inhibition at 99.5 µM", "setting": "[2]; [9]", "value": -7.81, "unit": "%"}]}
{"smiles": "Cn1nc(NC(=O)c2cc3nccn3c(=O)[nH]2)c2nccnc21", "note": "[ASAP-0000125]", "values": [{"measurement": "perc_inhibition_mean", "setting": "[1]; concentration 50.0 uM", "value": -1.913, "unit": "%"}, {"measurement": "inhibition at 50 µM", "setting": "[2]; read-out: perc_inhibition_mean, batch_name=ASAP-0000125-001", "value": -1.91, "unit": "%"}]}
{"smiles": "COCc1cc(CNc2nc3[nH]cnc3c(=O)[nH]2)on1", "note": "[ASAP-0000117]", "values": [{"measurement": "perc_inhibition_mean", "setting": "[1]; concentration 50.0 uM", "value": 2.984, "unit": "%"}, {"measurement": "inhibition at 50 µM", "setting": "[2]; read-out: perc_inhibition_mean, batch_name=ASAP-0000117-001", "value": 2.98, "unit": "%"}]}
{"smiles": "C[C@H](NC(=O)c1cnn2ccc(C3CCN(C(=O)c4ccccc4)CC3)cc12)c1cccnc1", "note": "[ASAP-0000346]", "values": [{"measurement": "perc_inhibition_mean", "setting": "[1]; concentration 49.75 uM, n=2", "value": -1.839, "unit": "%"}, {"measurement": "perc_inhibition_mean", "setting": "[1]; concentration 99.5 uM, n=2", "value": -6.209, "unit": "%"}, {"measurement": "inhibition at 49.75 µM", "setting": "[2]; [10]", "value": -1.84, "unit": "%"}, {"measurement": "inhibition at 99.5 µM", "setting": "[2]; [10]", "value": -6.21, "unit": "%"}]}
{"smiles": "COC(=O)c1cc2c(Oc3ccccc3C#N)ncnc2[nH]1", "note": "[ASAP-0000135]", "values": [{"measurement": "perc_inhibition_mean", "setting": "[1]; concentration 50.0 uM", "value": 2.922, "unit": "%"}, {"measurement": "inhibition at 50 µM", "setting": "[2]; read-out: perc_inhibition_mean, batch_name=ASAP-0000135-001", "value": 2.92, "unit": "%"}]}
{"smiles": "CC(C)n1cc(S(=O)(=O)Nc2cnc3[nH]ncc3c2)cn1", "note": "[ASAP-0000139]", "values": [{"measurement": "perc_inhibition_mean", "setting": "[1]; concentration 50.0 uM", "value": 1.555, "unit": "%"}, {"measurement": "inhibition at 50 µM", "setting": "[2]; read-out: perc_inhibition_mean, batch_name=ASAP-0000139-001", "value": 1.55, "unit": "%"}]}
{"smiles": "Cn1nc(C(=O)N2CCC(c3ccn4ncc(C(=O)N5CCCCC5)c4c3)CC2)cc1C(=O)O", "note": "[ASAP-0000449]", "values": [{"measurement": "perc_inhibition_mean", "setting": "[1]; concentration 49.75 uM", "value": 42.655, "unit": "%"}, {"measurement": "perc_inhibition_mean", "setting": "[1]; concentration 99.5 uM", "value": 59.743, "unit": "%"}, {"measurement": "inhibition at 49.75 µM", "setting": "[2]; [11]", "value": 42.7, "unit": "%"}, {"measurement": "inhibition at 99.5 µM", "setting": "[2]; [11]", "value": 59.7, "unit": "%"}]}
{"smiles": "CNC(=O)c1cccc(CNC(=O)c2ncnc3[nH]ccc23)c1", "note": "[ASAP-0000019]", "values": [{"measurement": "perc_inhibition_mean", "setting": "[1]; concentration 50.0 uM", "value": -5.906, "unit": "%"}, {"measurement": "inhibition at 50 µM", "setting": "[2]; read-out: perc_inhibition_mean, batch_name=ASAP-0000019-001", "value": -5.91, "unit": "%"}]}
